The values that follow come from patent US20240327311A1, “Benzothiazole Derivative as a Urease Inhibitor for Fertilizer Application” (Sabic Agri-Nutrients Company, priority 2021, published 2024).

Data set [1] addresses urease (Canavalia ensiformis, UniProt P07374). The following applies: cited from earlier work.
Data set [2] can be described thus: Thermogravimetric analysis and isothermal study under air. The format is physicochemical. The settings on record: air atmosphere.
The conditions of data set [3]: similar storage conditions; Soil Use and Management, 2008, 24, 246; cited from earlier work.
For data set [4] the following is noted: similar conditions; U.S. Pat. No. 10,640,430; cited from earlier work.

urease, sequence (P07374 whole entry, looked up): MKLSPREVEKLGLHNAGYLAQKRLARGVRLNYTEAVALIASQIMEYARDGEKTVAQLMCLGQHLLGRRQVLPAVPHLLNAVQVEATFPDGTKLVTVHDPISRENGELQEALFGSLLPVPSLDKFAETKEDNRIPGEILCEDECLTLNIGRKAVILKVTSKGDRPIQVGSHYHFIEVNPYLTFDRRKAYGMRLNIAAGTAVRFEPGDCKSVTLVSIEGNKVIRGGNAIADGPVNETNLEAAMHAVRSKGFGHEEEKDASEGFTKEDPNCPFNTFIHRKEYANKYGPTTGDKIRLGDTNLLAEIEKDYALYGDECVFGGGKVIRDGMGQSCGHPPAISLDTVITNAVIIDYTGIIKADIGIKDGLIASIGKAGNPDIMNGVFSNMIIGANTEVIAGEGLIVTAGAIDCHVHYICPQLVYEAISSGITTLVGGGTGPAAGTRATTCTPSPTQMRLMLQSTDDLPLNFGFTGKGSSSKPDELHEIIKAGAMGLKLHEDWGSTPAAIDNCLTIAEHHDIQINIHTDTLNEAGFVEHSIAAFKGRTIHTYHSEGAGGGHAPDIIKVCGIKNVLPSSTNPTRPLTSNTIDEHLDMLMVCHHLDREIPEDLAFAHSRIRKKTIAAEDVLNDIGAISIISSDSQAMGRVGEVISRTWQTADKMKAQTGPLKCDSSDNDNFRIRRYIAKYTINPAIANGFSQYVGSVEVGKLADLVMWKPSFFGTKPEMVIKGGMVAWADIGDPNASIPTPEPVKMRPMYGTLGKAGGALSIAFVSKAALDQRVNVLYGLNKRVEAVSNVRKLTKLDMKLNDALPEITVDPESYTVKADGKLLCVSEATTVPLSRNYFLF

Usually IC50 stands for the concentration needed to halve the response being measured. Consider `CCCCNP(N)(N)=S` [drawing 22], for which, in data set [1], the IC50 is 100 nM.

Take `Oc1cccc(-c2nc3ccccc3s2)c1` [BZT, 2-(3-Hydroxyphenyl) benzothiazole]: the “amount of BZT lost (isothermal study)” value in data set [2] (140° C., 40 minutes) was “about 0.26%”. Besides, the “onset of degradation (TGA)” value in data set [2] came to 255.1 °C.

Regarding `CCCCNP(N)(N)=S` [NBTPT, N-(n-butyl) thiophosphoric triamide], the storage stability result in data set [3] is on record as “unstable”. Moreover, the “degradation under urea melt conditions” value in data set [4] is on record as “significant degradation”.

Take `NP(N)(=O)Nc1ccccc1[N+](=O)[O-]`: the IC50 in data set [1] was 3 nM.
